Assay results from patent US20100286024A1, “Insulinotropic compounds and uses thereof” (priority 2005, published 2010).
Each block holds one molecule with its values, some of them ahead of it. No end group written: not given here.

How the values were obtained:
[1] = biological target: GLP-1 receptor (mouse) (UniProt O35659)
[2] = system: beta TC-6 cell line; experiment: Insulin release assay (insulin ELISA); format: cell-based, mouse; conditions: for Insulin release: 5 mM glucose, 30 minutes, Beta-TC-6 cells, cells only 1.37-3.67; for Activity of 3 μM of each peptide as percentage of insulin release by cells only / Activity of 15 μM of each peptide as percentage of insulin release by cells only: cells alone=100%
Description: This was derived from a pancreatic tumor (insulinoma) arising in a transgenic mouse.
Beta-TC-6 cells were purchased from A.T.C.C. (A.T.C.C. number CCL-11506; Manassas, Va., U.S.A.). Beta-TC-6 cells were cultured in Dulbecco's Modified Eagle's medium supplemented with 15% (v/v) heat-inactivated foetal bovine serum, 1% (v/v) glutamine, 0.45% (w/v) glucose and 0.15% (w/v) sodium bicarbonate at 37° C. in a humidified 5% CO2 atmosphere. Beta-TC-6 cells form islands and the monolayer never becomes confluent; cells were passaged at 70% confluence (7 days from seeding) at a subcultivation ratio of 1:4. The monolayer was disrupted from the surface of the culture flask with 0.25% (w/v) Trypsin-0.53 mM EDTA.
Beta-TC-6 cells were cultured in 12 well plates for between 4-8 days prior to use. Cells were cultured in Krebs-Ringer (10 mM Hepes, pH 7.4, 136 mM NaCl, 4.7 mM KCl and 1.25 mM MgSO4) supplemented with 5 mM glucose for 1 hr at 37° C. in a humidified 5% CO2 atmosphere. This medium was removed, cells washed with Krebs-Ringer. Beta-TC-6 cells were then cultured in 1 ml per well of Krebs-Ringer supplemented with 5 mM glucose and 0, 0.12, 0.6, 3 and 15 μM of peptide in duplicate for 30 minutes at 37° C. in a humidified 5% CO2 atmosphere. Medium was removed, diluted 1:5, and insulin concentration determined using an insulin ELISA kit (Mercodia, Uppsala, Sweden) according to the manufacturer's protocol. Beta-TC-6 cells were washed three times with ice-cold PBS and extracted into 0.5 ml lysis buffer (62.5 mM Tris, pH 7.5, and 1%, v/v, SDS) per well. Protein concentration was determined by Lowry assay. […] Only single-sided p values are shown.

[3] = Control study: chemical stability in PBS/triethanolamine without DPP-IV; format: physicochemical; conditions: PBS/TEthA, pH 7.5, 37°, no DPP-IV; for remaining at 22 h / remaining at 47 h: PBS/triethanolamine solution without DPP-IV, read-out: percentage of peptide remaining
Description: In the control study, peptides were incubated with PBS/triethanolamine solution in the absence of DPP-IV to measure their chemical stability.

[4] = biological target: DPP-IV (Homo sapiens, UniProt P27487); experiment: Dipeptidyl Peptidase IV (DPP-IV) digestion, stability by RP-HPLC (Example 10); format: in vitro ADME; conditions: DPP-IV (isolated peptidase), PBS/TEthA, pH 7.5, 37°, DPP-IV, read-out: percentage of analogue remaining
DPP-IV, sequence (P27487 whole entry, species assumed): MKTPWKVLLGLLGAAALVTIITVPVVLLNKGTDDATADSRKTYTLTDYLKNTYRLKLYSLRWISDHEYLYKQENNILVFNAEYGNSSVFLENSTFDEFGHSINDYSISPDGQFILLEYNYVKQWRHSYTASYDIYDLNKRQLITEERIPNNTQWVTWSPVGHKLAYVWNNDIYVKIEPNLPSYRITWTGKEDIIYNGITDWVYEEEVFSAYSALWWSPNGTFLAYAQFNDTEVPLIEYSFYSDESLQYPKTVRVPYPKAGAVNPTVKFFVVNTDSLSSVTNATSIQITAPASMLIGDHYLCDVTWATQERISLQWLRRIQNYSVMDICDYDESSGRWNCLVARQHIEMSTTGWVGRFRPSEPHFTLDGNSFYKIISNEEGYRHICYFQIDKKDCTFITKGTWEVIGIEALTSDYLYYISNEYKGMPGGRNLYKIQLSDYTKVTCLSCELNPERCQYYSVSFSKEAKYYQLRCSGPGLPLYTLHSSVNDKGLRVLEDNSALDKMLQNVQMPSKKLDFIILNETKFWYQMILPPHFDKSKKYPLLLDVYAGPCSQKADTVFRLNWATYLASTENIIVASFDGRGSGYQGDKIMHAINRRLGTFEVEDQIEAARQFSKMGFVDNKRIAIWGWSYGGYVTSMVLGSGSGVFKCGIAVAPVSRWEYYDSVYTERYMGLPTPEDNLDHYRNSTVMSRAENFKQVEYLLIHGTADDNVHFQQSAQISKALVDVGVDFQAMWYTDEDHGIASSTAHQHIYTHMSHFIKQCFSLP
Description: Their stabilities were monitored by RP-HPLC, noting the disappearance of the intact sequence and appearance of a species missing the N terminal dipeptide or similar fragment.

[5] = system: dipeptidyl peptidase IV; experiment: DPP-IV assay (Example 5), HPLC/ES-MS; format: in vitro ADME; conditions: 11 milliunits DPP-IV, 50 mM triethanolamine buffer pH 7.8, 37° C., HPLC and ES-MS
Description: J. Bailey, F. P. M. O'Harte, and P. R. Flatt. […] Biological Chemistry. 385, pp 169-177.
Briefly, 100-200 microgams of each peptide was dissolved in 0.5 ml of 50 mM triethanolamine buffer, pH 7.8. To this was added a 10 microlitre solution of 11 milliunits DPP-IV (Sigma) and the solutions incubated at 37° C. for up to 42 hours. […] The incubations were terminated by addition of 5 microlitres TFA to each tube and 50 microlitre of each were injected onto a reversed phase 4.6×250 mm C18 HPLC column, eluting a gradient of 20%-45% acetonitrile in 0.1% TFA/water over 25 minutes. […] After 42 hours, the 2 analogues slowly degraded to a product that gave a mass spectrum consistent with the mass of the 9-37 sequence, indicating longer term instability of the urea bond. This represented as much as 15% of the product by HPLC. This degradation appeared to be non-DPP-IV related, since samples without enzyme gave the same profile.

[6] = biological target: Native GLP-1 7-37 (Homo sapiens)
[7] = biological target: L-His-NH-NH-CH2-C(O)-Glu9-37 (SP006) (Homo sapiens)
[8] = biological target: L-His-L-Ala-NH-NH-CH2-C(O)-Glu9-37 (SP007) (Homo sapiens)
[9] = biological target: L-His-NH-NH-CH(CH3)-C(O)-Glu9-37 (SP008) (Homo sapiens)
[10] = biological target: L-His-L-NH-CH(CH3)-CH2-NH-O-CH2-C(O)-Glu9-37 (SP005) (Homo sapiens)

- percentage of peptide remaining ([3]; 47 hr): 88%
- remaining at 22 h [3]: 88%
- remaining at 22 h [4]: 88%
- remaining at 47 h [4]: 87%
Molecule: CC[C@H](C)[C@H](NC(=O)[C@H](Cc1ccccc1)NC(=O)[C@H](CCC(=O)O)NC(=O)[C@H](CCCCN)NC(=O)[C@H](C)NC(=O)[C@H](C)NC(=O)[C@H](CCC(N)=O)NC(=O)CNC(=O)[C@H](CCC(=O)O)NC(=O)[C@H](CC(C)C)NC(=O)[C@H](Cc1ccc(O)cc1)NC(=O)[C@H](CO)NC(=O)[C@H](CO)NC(=O)[C@@H](NC(=O)[C@H](CC(=O)O)NC(=O)[C@H](CO)NC(=O)[C@@H](NC(=O)[C@H](Cc1ccccc1)NC(=O)[C@@H](NC(=O)CNC(=O)[C@H](CCC(=O)O)NC(=O)CNNC(=O)[C@@H](N)Cc1c[nH]cn1)[C@@H](C)O)[C@@H](C)O)C(C)C)C(=O)N[C@@H](C)C(=O)N[C@@H](Cc1c[nH]c2ccccc12)C(=O)N[C@@H](CC(C)C)C(=O)N[C@H](C(=O)N[C@@H](CCCCN)C(=O)NCC(=O)N[C@@H](CCCNC(=N)N)C(=O)NCC(=O)O)C(C)C [SP006, L-His-NH-NH-CH2-C(O)-Glu9-37]
- Insulin release ([2]; 3 μM peptide): 3.86 ng/min/mg
- Activity of 3 μM of each peptide as percentage of insulin release by cells only ([2]; 3 μM peptide): 154 ± 25%
- Insulin release ([2]; 15 μM peptide): 8.88 ng/min/mg
- Activity of 15 μM of each peptide as percentage of insulin release by cells only ([2]; 15 μM peptide): 330 ± 89%

- remaining at 22 h [3]: 91%
- remaining at 47 h ([3]; 47 hr): 77%
- remaining at 22 h [4]: 95%
- remaining at 47 h [4]: 93%
Molecule: CC[C@H](C)[C@H](NC(=O)[C@H](Cc1ccccc1)NC(=O)[C@H](CCC(=O)O)NC(=O)[C@H](CCCCN)NC(=O)[C@H](C)NC(=O)[C@H](C)NC(=O)[C@H](CCC(N)=O)NC(=O)CNC(=O)[C@H](CCC(=O)O)NC(=O)[C@H](CC(C)C)NC(=O)[C@H](Cc1ccc(O)cc1)NC(=O)[C@H](CO)NC(=O)[C@H](CO)NC(=O)[C@@H](NC(=O)[C@H](CC(=O)O)NC(=O)[C@H](CO)NC(=O)[C@@H](NC(=O)[C@H](Cc1ccccc1)NC(=O)[C@@H](NC(=O)CNC(=O)[C@H](CCC(=O)O)NC(=O)[C@H](C)NNC(=O)[C@@H](N)Cc1c[nH]cn1)[C@@H](C)O)[C@@H](C)O)C(C)C)C(=O)N[C@@H](C)C(=O)N[C@@H](Cc1c[nH]c2ccccc12)C(=O)N[C@@H](CC(C)C)C(=O)N[C@H](C(=O)N[C@@H](CCCCN)C(=O)NCC(=O)N[C@@H](CCCNC(=N)N)C(=O)NCC(=O)O)C(C)C [SP008, L-His-NH—NH—CH(CH3)—C(O)-Glu9-37]
- Insulin release ([2]; 3 μM peptide): 4.35 ng/min/mg
- Activity of 3 μM of each peptide as percentage of insulin release by cells only ([2]; 3 μM peptide): 112 ± 44%
- Insulin release ([2]; 15 μM peptide): 6.20 ng/min/mg
- Activity of 15 μM of each peptide as percentage of insulin release by cells only ([2]; 15 μM peptide): 170 ± 48%

- remaining at 22 h [3]: 95%
- remaining at 47 h ([3]; 47 hr): 89%
- remaining at 22 h [4]: 95%
- remaining at 47 h [4]: 93%
Molecule: CC[C@H](C)[C@H](NC(=O)[C@H](Cc1ccccc1)NC(=O)[C@H](CCC(=O)O)NC(=O)[C@H](CCCCN)NC(=O)[C@H](C)NC(=O)[C@H](C)NC(=O)[C@H](CCC(N)=O)NC(=O)CNC(=O)[C@H](CCC(=O)O)NC(=O)[C@H](CC(C)C)NC(=O)[C@H](Cc1ccc(O)cc1)NC(=O)[C@H](CO)NC(=O)[C@H](CO)NC(=O)[C@@H](NC(=O)[C@H](CC(=O)O)NC(=O)[C@H](CO)NC(=O)[C@@H](NC(=O)[C@H](Cc1ccccc1)NC(=O)[C@@H](NC(=O)CNC(=O)[C@H](CCC(=O)O)NC(=O)CONC[C@H](C)NC(=O)[C@@H](N)Cc1c[nH]cn1)[C@@H](C)O)[C@@H](C)O)C(C)C)C(=O)N[C@@H](C)C(=O)N[C@@H](Cc1c[nH]c2ccccc12)C(=O)N[C@@H](CC(C)C)C(=O)N[C@H](C(=O)N[C@@H](CCCCN)C(=O)NCC(=O)N[C@@H](CCCNC(=N)N)C(=O)NCC(=O)O)C(C)C [SP005, L-His-L-NH—CH(CH3)—CH2—NH—O—CH2—C(O)-Glu9-37]
- Insulin release ([2]; 3 μM peptide): 2.25 ng/min/mg
- Activity of 3 μM of each peptide as percentage of insulin release by cells only ([2]; 3 μM peptide): 171 ± 53%
- Insulin release ([2]; 15 μM peptide): 5.26 ng/min/mg
- Activity of 15 μM of each peptide as percentage of insulin release by cells only ([2]; 15 μM peptide): 358 ± 128%

More lines, now with the values behind:

Molecule: L-His-L-Ala-NH-NH-CH2-C(O)-Glu9-37 (SP007) (peptide)
- Activity of 15 µM of each peptide as percentage of insulin release by cells only (beta TC-6 cells) (% of insulin release by cells only) [1]: 235

Molecule: GLP-1 NH2-D-His-D-Ala-Urea-9-37 (SP002) (peptide)
- Activity of 15 µM of each peptide as percentage of insulin release by cells only (beta TC-6 cells) (% of insulin release by cells only) [1]: 254

Molecule: L-His-NH-NH-CH2-C(O)-Glu9-37 (SP006) (peptide)
- Activity of 15 µM of each peptide as percentage of insulin release by cells only (beta TC-6 cells) (% of insulin release by cells only) [1]: 330

Molecule: Glu Gly Thr Phe Thr Ser Asp Val Ser Ser Tyr Leu Glu Gly Gln Ala Ala Lys Glu Phe Ile Ala Trp Leu Val Lys Gly Arg Gly (EGTFTSDVSSYLEGQAAKEFIAWLVKGRG; listed as Homo sapiens) [Native GLP-1 9-37, reference compound]
- Insulin release ([2]; 15 μM peptide): 3.25 ng/min/mg
- Activity of 15 μM of each peptide as percentage of insulin release by cells only ([2]; 15 μM peptide): 123 ± 17%

Molecule: HAEGTFTSDVSSYLEG [GLP-1 7-22]
- state of peptide after 18 hr incubation with DPP-IV [5]: completely cleaved

Molecule: L-His-L-NH-CH(CH3)-CH2-NH-O-CH2-C(O)-Glu9-37 (SP005) (peptide)
- Activity of 15 µM of each peptide as percentage of insulin release by cells only (beta TC-6 cells) (% of insulin release by cells only) [1]: 358

Molecule: GLP-1 NH2-L-His-L-Ala-urea-9-37 (SP001) (peptide)
- Activity of 15 µM of each peptide as percentage of insulin release by cells only (beta TC-6 cells) (% of insulin release by cells only) [1]: 100

Molecule: L-His-NH-NH-CH(CH3)-C(O)-Glu9-37 (SP008) (peptide)
- Activity of 15 µM of each peptide as percentage of insulin release by cells only (beta TC-6 cells) (% of insulin release by cells only) [1]: 170

Molecule: dipeptidyl peptidase IV (DPP-IV) (Sigma) (enzyme)
- percentage of each analogue remaining after incubation with DPP-IV (RP-HPLC), 22 hr [6]: < 5 % remaining
- percentage of each analogue remaining after incubation with DPP-IV (RP-HPLC), 47 hr [7]: 87 % remaining
- percentage of each analogue remaining after incubation with DPP-IV (RP-HPLC), 22 hr [8]: < 5 % remaining
- percentage of each analogue remaining after incubation with DPP-IV (RP-HPLC), 47 hr [9]: 93 % remaining
- percentage of each analogue remaining after incubation with DPP-IV (RP-HPLC), 47 hr [10]: 93 % remaining
